Assay results as given in patent publication US9125937B2, “Labelled analogues of halobenzamides as multimodal radiopharmaceuticals and their precursors” (INSTITUT NATIONAL DE LA SANTE ET DE LA RECHERCHE MEDICALE …, priority 2008, dated 2015).
Structures can show the parent of a compound that is named as a salt.

Tested on: B16 F0 murine melanoma
Test: Biodistribution study by planar scintigraphic imaging (gamma camera), tumour uptake quantification
Format: in vivo, C57BL6 male mice
Conditions: i.v.
Procedure: Tumour Implantation. For transplantation, cells grown in monolayer culture to confluence were trypsinized and washed with phosphate buffer saline (PBS). They were resuspended in PBS and each mouse received 0.1 mL subcutaneously (3×10^5 cells) on the left flank in order to allow a tumour growth on the body side. Ten days later, the tumours became palpable with a percentage of tumour take of 98-100%.
The in vivo biodistribution and kinetic profile of each radiolabelled (iodine-125) compound have been studied in C57BL6 male mice bearing the B16 F0 murine melanoma by repeated planar scintigraphic imaging which allows the tumour uptake follow-up in the same animal.
Gamma Camera. In vivo radionuclide imaging was performed using a γ IMAGER (Biospace Mesures, Paris, France) especially dedicated for small animal, a scintigraphic camera with a continuous 4 mm thick×120 mm diameter CsI(Na) crystal, a position-sensitive Hamamatsu R3292 photomultiplier and a 10 cm field of view.
Imaging Protocol. On day 14 after tumour implantation (tumour weight 0.25±0.10 g) each [^125I]-radioiodinated compound was administered intravenously via a tail vein (0.1 μmol, range 3.7 to 7 MBq/animal) in three mice for each compound. At different times after administration (1, 3, 6, 24, 72 hours, 5, 7, 10 and 15 days), mice were anesthetized with 0.2 mL, for a 20 g mouse, of a ketamine-xylazine mixture in saline (1-0.25 mL for 5 mL) by i. p. administration, and repeated planar scintigraphic whole body imaging (mouse laying in anterior position on the camera field) were performed by an acquisition time of 10 min. For this study, the camera was equipped with a 1.8/0.2/20 collimator (hole diameter/septum thickness/height in mm).
Tumoural Radioactivity Quantification Approach. The injected activity to each mouse was determined from scintigraphic imaging of the syringe before and after the injection using the γ-IMAGER.
Regions of interest (ROIs) were delineated over the whole body image: whole body uptake area (or the various fixing areas, eyes, thyroid and abdomen) and one for the tumour uptake area. In the various ROIs, the activity (cpm) was quantified using the Biospace measures γ VISION+software. These values were normalized to the injected dose. For the tumour, the activity was also normalized to the tumour weight. Firstly, the volume was calculated from the two dimensions caliper measurement (Bissery, M. C.; Guenard, D.; Gueritte-Voegelin, F.; Lavelle, F. Experimental antitumour activity of taxotere (RP 56976, NSC 628503) a taxol analogue. Cancer res. 1991, 51, 4845-4852). Secondly, the weight was determined from the volume value corrected by a factor determined from a large panel of experiments (Weight g=volume mm^3×0.6). The data were expressed as % ID/g of B 16F0 melanoma tumour.

Compound | Radioactive concentration in tumour (tumoural uptake) (1 H post injection) [% ID/g] | Radioactive concentration in tumour (tumoural uptake) (3 H post injection) [% ID/g] | Radioactive concentration in tumour (tumoural uptake) (6 H post injection) [% ID/g] | Radioactive concentration in tumour (tumoural uptake) (24 H post injection) [% ID/g] | Radioactive concentration in tumour (tumoural uptake) (72 H post injection) [% ID/g] | Radioactive concentration in tumour (tumoural uptake) (120 H post injection) [% ID/g] | Radioactive concentration in tumour (tumoural uptake) (168 H post injection) [% ID/g] | Radioactive concentration in tumour (tumoural uptake) (240 H post injection) [% ID/g] | Radioactive concentration in tumour (tumoural uptake) (360 H (15 days) post injection) [% ID/g]
CCN(CCNC(=O)c1cnc2cc([125I])ccc2n1)CCNc1cccc(F)n1 [[^125I]17, [^125I]N-[2-[N-ethyl-N-[2-[(6-fluoropyridin-2-yl)amino]ethyl]amino]ethyl]-6-iodoquinoxaline-2-carboxamide dihydrochloride salt] | 13.1 ± 6.8 | 13.7 ± 6.1 | 12.5 ± 3.9 | 8.6 ± 0.9 | 5.7 ± 1.5 | 2.6 ± 0.4 | 1.5 ± 0.2 | 0.8 ± 0.1 | 0.4 ± 0.2
CCN(CC)CCNC(=O)c1cc(F)c2cc([125I])ccc2n1 [[^125I]106, [^125I]N-[2-(diethylamino)ethyl]-4-fluoro-6-iodoquinoline-2-carboxamide] | 6.0 ± 1.3 | 8.0 ± 0.9 | 9.5 ± 1.8 | 8.4 ± 0.8 | 4.9 ± 1.2 | 3.0 ± 0.1 | 2.3 ± 0.6 | 1.5 ± 0.1 | 0.7 ± 0.1
CCN(CCNC(=O)c1cnc2cc([125I])ccc2n1)CCOc1cccnc1F [[^125I]11, [^125I]N-[2-[N-ethyl-N-[2-(2-fluoropyridin-3-yloxy)ethyl]amino]ethyl]-6-iodoquinoxaline-2-carboxamide dihydrochloride salt] | 12.7 ± 2.3 | – | 18.8 ± 1.6 | 18.2 ± 0.6 | 10.3 ± 1.7 | 5.2 ± 1.2 | 3.2 ± 0.4 | 1.7 ± 0.4 | 0.6 ± 0.3
CCN(CCNC(=O)c1cnc2cc([125I])ccc2n1)CCc1ccnc(F)c1.Cl.Cl [[^125I]47] | 12.1 ± 4.1 | 13.3 ± 6.0 | 14.5 ± 6.6 | 11.2 ± 2.5 | 7.7 ± 0.9 | 5.2 ± 1.7 | 3.0 ± 1.0 | 1.6 ± 0.5 | 1.1 ± 0.3
CCN(CCNC(=O)c1cnc2cc([125I])ccc2n1)Cc1ccnc(F)c1.Cl.Cl [[^125I]34] | 10.3 ± 6.6 | 12.0 ± 4.8 | 15.4 ± 6.7 | 16.0 ± 7.4 | 10.0 ± 2.6 | 7.1 ± 1.8 | – | 1.9 ± 0.9 | 0.8 ± 0.5
CCN(CCF)CCNC(=O)c1cnc2cc([125I])ccc2n1 [[^125I]26, [^125I]N-[2-[[N-ethyl-N-(2-fluoroethyl)]amino]ethyl]-6-iodoquinoxaline-2-carboxamide dihydrochloride salt] | 21.4 ± 4.9 | – | 25.0 ± 8.0 | 24.8 ± 6.5 | – | 8.4 | – | 1.6 | 0.6
CCN(CCNC(=O)c1ccc2cncc([125I])c2n1)CCOc1cccnc1F.Cl.Cl [[^125I]74] | 5.6 ± 1.7 | 5.5 ± 2.4 | 5.3 ± 2.4 | 5.2 ± 2.0 | 3.3 ± 2.0 | 1.6 ± 0.7 | 1.1 ± 0.5 | 0.5 ± 0.3 | 0.4 ± 0.3
CCN(CCNC(=O)c1cccc2nc3cc([125I])ccc3nc12)CCOc1cccnc1F.Cl.Cl [[^125I]85] | 11.4 ± 1.7 | 12.3 ± 1.7 | 13.8 ± 2.5 | 13.8 ± 2.3 | 5.8 ± 0.2 | 3.7 ± 0.6 | 2.0 ± 0.9 | 1.2 ± 0.5 | 0.7 ± 0.4
CCN(CCNC(=O)c1ccnc(F)c1)CCNC(=O)c1cnc2cc([125I])ccc2n1.Cl.Cl [[^125I]40] | 9.6 ± 0.7 | 8.8 ± 1.6 | 12.1 ± 3.2 | 12.1 ± 4.6 | 9.6 ± 7.1 | 5.1 ± 3.3 | – | – | –
CCN(CCCc1ccnc(F)c1)CCNC(=O)c1cnc2cc([125I])ccc2n1.Cl.Cl [[^125I]53] | 9.1 ± 1.8 | 9.3 ± 0.6 | 14.1 ± 3.9 | 16.3 ± 8.9 | 9.5 ± 5.9 | 5.1 ± 3.3 | 2.5 ± 2.1 | 1.4 ± 1.0 | 0.7 ± 0.5
CCN(CC)Cc1ccnc(F)c1CNC(=O)c1cnc2cc([125I])ccc2n1.Cl.Cl [[^125I]92] | 5.6 ± 2.0 | 6.5 ± 3.2 | 6.7 ± 1.9 | 6.4 ± 1.8 | 4.1 ± 1.5 | 2.4 ± 0.7 | 1.5 ± 0.4 | 0.8 ± 0.3 | 0.7 ± 0.1
